The text below walks through data of patent publication US20230346827A1 (priority 2020, published 2023).

Experiment [1] has as its system HUVEC + (IL-4 and histamine). Description: BioMAP 4H system. Type of experiment: cell-based, human. The settings on record: annotated relative to vehicle controls. An excerpt: (§1) Cell types and stimuli used in each system are as follows: 3C system [HUVEC + (IL-1β, TNFα and IFNy)], 4H system [HUVEC + (IL-4 and histamine)], LPS system [PBMC and HUVEC + LPS (TLR4 ligand)], SAg system [PBMC and HUVEC + TCR ligands], BT system [CD19+ B cells and PBMC + (α-IgM and TCR ligands)], BF4T system [bronchial epithelial cells and HDFn + (TNFα and IL-4)], BE3C system [bronchial epithelial cells + (IL-1β, TNFα and IFNy)], CASM3C system [coronary artery smooth muscle cells + (IL-1 β, TNFα and IFNy)], HDF3CGF system [HDFn + (IL-1β, TNFα, IFNy, EGF, bFGF and PDGF-BB)], KF3CT system [keratinocytes and HDFn + (IL-1β, TNFα, IFNy and TGFβ)], MyoF system [differentiated lung myofibroblasts + (TNFα and TGFβ)] and Mphg system [HUVEC and M1 macrophages + Zymosan (TLR2 ligand)].
(§2) Systems are derived from either single cell types or co-culture systems. Adherent cell types are cultured in 96 or 384-well plates until confluence, followed by the addition of PBMC (SAg and LPS systems). […] Soluble factors from supernatants are quantified using either HTRF® detection, bead-based multiplex immunoassay or capture ELISA. Overt adverse effects of test agents on cell proliferation and viability (cytotoxicity) are detected by sulforhodamine B (SRB) staining, for adherent cells, and alamarBlue® reduction for cells in suspension. […]

In experiment [2] the test system is coronary artery smooth muscle cells + (IL-1 β, TNFα and IFNy). The experiment is described as follows: BioMAP CASM3C system. Type of experiment: cell-based, human. The note with it: annotated relative to vehicle controls.
Description: as §1, §2

Experiment [3] deals with HUVEC + (IL-1β, TNFα and IFNy). Description: BioMAP 3C system. Type of experiment: cell-based, human. The settings on record: annotated relative to vehicle controls.
Description: as §1, §2

In experiment [4] the test system is plasma hepatocyte growth factor (HGF). Description: Plasma HGF (ELISA) in ALS patients after s.c. LMW-DS 1 mg/kg weekly (Example 2). Type of experiment: in vivo, human. The note with it: 1 mg/kg s.c. The procedure:
This was a single-center, open single-arm study where the safety, tolerability and efficacy of subcutaneous (s.c.) administered LMW-DS was evaluated in patients with ALS. There were 10 planned visits to the clinic: 1 screening visit divided in 2 parts (Visit 1a and Visit 1b), 5 investigational medicinal product (IMP) administration visits (Visit 2 to Visit 6) and 3 follow-up visits (Visit 7 to Visit 9). Each individual patient’s study participation was planned to be approximately 4 months, including the screening and follow-up visits.
The active pharmaceutical ingredient of the IMP was a low molecular weight dextran sulfate (LMW-DS), (ILB®, Tikomed AB, Viken, Sweden, WO 2016/076780). The drug was used as a solution for s.c. injection and consisted of 20 mg/mL LMW-DS and 9 mg/mL NaCl. Each glass vial contained 10 mL. The dose administered depended on the patient’s body weight at Visit 2, prior to the first LMW-DS administration. LMW-DS was injected s.c. on alternating sides of the abdomen, thigh or the buttock (in that order of priority). Five injections of 1 mg/kg, with 1 week dosing interval, were administered. Changes in immunoreactive HGF were measured by commercial ELISA (R&D HGF ELISA) from blood samples taken at each visit.
(An ELISA detects its analyte on a solid surface through an enzyme-linked reagent.)

The subject of experiment [5] is keratinocytes and HDFn + (IL-1β, TNFα, IFNy and TGFβ). The experiment is described as follows: BioMAP KF3CT system. The class given is cell-based, human. The settings on record: annotated relative to vehicle controls.
Description: as §1, §2

Experiment [6] deals with ALS patients. The experiment is described as follows: Serum lactate in ALS patients, dextran sulfate 2 mg/kg s.c. weekly for ten weeks (Example 14). The class given is in vivo, human. Details: serum lactate levels: unit not given here. The procedure: Dextran sulfate (ILB®, Tikomed AB, Viken, Sweden, WO 2016/076780) was administered at 2 mg/kg by […] subcutaneous injection once a week for ten weeks to 8 human patients suffering from ALS.
Peripheral venous blood samples were collected from patients before (week 0) and after dextran sulfate administration (week 5 and week 10) after at least 15 minutes of complete rest, using the standard tourniquet procedure, from the antecubital vein into a single VACUETTE® polypropylene tube containing serum separator and clot activator (Greiner-Bio One GmbH, Kremsmunster, Austria). After 30 mins at room temperature (20-25° C.), blood withdrawals were centrifuged at 1,890 × g for 10 min to get serum aliquots.
A serum aliquot of 500 µl was supplemented with 1 ml of HPLC-grade acetonitrile, vortexed for 60 secs, centrifuged at the maximum speed in a top-bench centrifuge to precipitate proteins. Supernatants were washed with large volumes of HPLC-grade chloroform to remove organic solvent, centrifuged and the upper aqueous phases were transferred to different tubes, clearly labeled to identify the sample and stored at -80° C. until analyzed to determine different water-soluble compounds.

Consider sodium salt of dextran sulfate [LMW-DS], for which the results for the Increased biomarker activity result in experiment [1], in experiment [3] and in experiment [5] were “uPAR”, “IL-8” and “IL-8”, respectively. In addition, the Decreased biomarker activity result was “VCAM-1, MIG” in experiment [2] and “MCP-1” in experiment [5]. Further, the “time of maximum peak of plasma HGF after LMW-DS administration” value in experiment [4] is “about 2 hr”. Further, the “increase of serum lactate levels vs Week 0” value in experiment [6] (after 5 weeks of treatment) is 29.8%; in experiment [6] (after 10 weeks of treatment), 70%. The serum lactate levels turned out to be 2.31±1.02 in experiment [6] (after 5 weeks of treatment) and 3.02±1.59 in experiment [6] (after 10 weeks of treatment).
